# According to patent US20200339625A1, “NOVEL RADIOMETAL-BINDING COMPOUNDS FOR DIAGNOSIS OR TREATMENT OF PROSTATE SPECIFIC MEMBRANE ANTIGEN-EXPRESSING CANCER” (PROVINCIAL HEALTH SERVICES AUTHORITY, priority 2017, published 2020):
# Key:
# [1] = tested on: mice bearing LNCaP tumor xenografts; experiment: PET/CT imaging of 68Ga-labeled compounds; assay type: in vivo
# Method: 2.17 PET/CT Imaging and Biodistribution
# (§1) Imaging and biodistribution experiments were performed using NODSCID 1L2RyKO male mice. Mice were anesthetized by inhalation with 2% isoflurane in oxygen, and implanted subcutaneously with 1×10^7 LNCaP cells behind left shoulder. Mice were imaged or used in biodistribution studies when the tumor grew up to reach 5-8 mm in diameter during 5-6 weeks.
# PET imaging experiments were conducted using Siemens Inveon micro PET/CT scanner. Each tumor bearing mouse was injected 6-8 MBq of 68Ga-labeled tracer through the tail vein under anesthesia (2% isoflurane in oxygen). The mice were allowed to recover and roam freely in their cage. After 50 min, the mice were sedated again with 2% isoflurane in oxygen inhalation and positioned in the scanner. A 10-min CT scan was conducted first for localization and attenuation correction after segmentation for reconstructing the PET images. Then, a 10-min static PET imaging was performed to determined uptake in tumor and other organs. The mice were kept warm by a heating pad during acquisition. For imaging studies acquired at 3 h post-injection (p.i.), the mice were placed in the micro PET/CT scanner at 170 min p.i. Then, the CT acquisitions were conducted as described above, a 15-min static PET imaging was performed to determined uptake in tumor and other organs.
# [2] = tested on: mice bearing PSMA-expressing LNCAP cancer xenografts; experiment: Biodistribution of 68Ga-labeled compounds; assay type: in vivo
# Method: as §1
# For biodistribution studies, the mice were injected with the radiotracer as described above. At predetermined time points (1 or 3 h), the mice was anesthetized with 2% isoflurane inhalation, and euthanized by CO2 inhalation. Blood was withdrawn immediately from the heart, and the organs/tissues of interest were collected. The collected organs/tissues were weighed and counted using an automatic gamma counter. The uptake in each organ/tissue was normalized to the injected dose using a standard curve, and expressed as the percentage of the injected dose per gram of tissue (% ID/g).
compound,measurement,setting,value
O=C([O-])CN1CCN(CC(=O)[O-])CCN(CC(=O)NCCCC[C@H](NC(=O)CNC(=O)CCCc2ccccc2)C(=O)NC[C@H]2CC[C@H](C(=O)N[C@@H](Cc3ccc4ccccc4c3)C(=O)NCCCC[C@H](NC(=O)N[C@@H](CCC(=O)O)C(=O)O)C(=O)O)CC2)CCN(CC(=O)[O-])CC1.[68Ga+3] [^68Ga-HTK03056],change of tumor uptake from 1 h to 3 h post-injection,[1]; PET/CT images,uptake in tumors increases over time
same,blood retention (qualitative),"[1]; PET/CT images at 1 h and 3 h post-injection, comparison within the figure",some extent of blood retention
same,Adrenal glands uptake,[2]; 1 h post-injection,3.78 ± 0.46 % ID/g
same,Blood uptake,[2]; 1 h post-injection,4.68 ± 1.09 % ID/g
same,Bone uptake,[2]; 1 h post-injection,0.76 ± 0.14 % ID/g
same,Brain uptake,[2]; 1 h post-injection,0.10 ± 0.03 % ID/g
same,Fat uptake,[2]; 1 h post-injection,0.87 ± 0.53 % ID/g
same,Heart uptake,[2]; 1 h post-injection,1.29 ± 0.34 % ID/g
same,Intestine uptake,[2]; 1 h post-injection,0.60 ± 0.14 % ID/g
same,Kidneys uptake,[2]; 1 h post-injection,123 ± 30.4 % ID/g
same,Lacrimal uptake,[2]; 1 h post-injection,1.35 ± 0.43 % ID/g
same,Liver uptake,[2]; 1 h post-injection,1.02 ± 0.34 % ID/g
same,Lungs uptake,[2]; 1 h post-injection,3.28 ± 0.85 % ID/g
same,Muscle uptake,[2]; 1 h post-injection,0.53 ± 0.11 % ID/g
same,Pancreas uptake,[2]; 1 h post-injection,0.85 ± 0.15 % ID/g
same,Salivary uptake,[2]; 1 h post-injection,3.34 ± 0.89 % ID/g
same,Seminal uptake,[2]; 1 h post-injection,0.74 ± 0.39 % ID/g
same,Spleen uptake,[2]; 1 h post-injection,3.92 ± 0.88 % ID/g
same,Stomach uptake,[2]; 1 h post-injection,0.27 ± 0.10 % ID/g
same,Tail uptake,[2]; 1 h post-injection,1.43 ± 0.34 % ID/g
same,Testes uptake,[2]; 1 h post-injection,0.98 ± 0.22 % ID/g
same,Thyroid uptake,[2]; 1 h post-injection,1.49 ± 0.44 % ID/g
same,Tumor uptake,[2]; 1 h post-injection,25.9 ± 3.21 % ID/g
same,Tumor:Blood ratio,[2]; 1 h post-injection,5.67 ± 0.97
same,Tumor:Muscle ratio,[2]; 1 h post-injection,49.7 ± 5.98
same,Tumor:kidney ratio,[2]; 1 h post-injection,0.22 ± 0.04
same,Urine uptake,[2]; 1 h post-injection,203 ± 88.0 % ID/g
same,Adrenal glands uptake,[2]; 3 h post-injection,3.95 ± 2.28 % ID/g
same,Blood uptake,[2]; 3 h post-injection,1.17 ± 0.36 % ID/g
same,Bone uptake,[2]; 3 h post-injection,1.93 ± 1.51 % ID/g
same,Brain uptake,[2]; 3 h post-injection,0.12 ± 0.05 % ID/g
same,Fat uptake,[2]; 3 h post-injection,0.58 ± 0.13 % ID/g
same,Heart uptake,[2]; 3 h post-injection,0.59 ± 0.26 % ID/g
same,Intestine uptake,[2]; 3 h post-injection,0.34 ± 0.04 % ID/g
same,Kidneys uptake,[2]; 3 h post-injection,31.1 ± 15.2 % ID/g
same,Lacrimal uptake,[2]; 3 h post-injection,3.01 ± 1.26 % ID/g
same,Liver uptake,[2]; 3 h post-injection,0.43 ± 0.08 % ID/g
same,Lungs uptake,[2]; 3 h post-injection,1.39 ± 0.53 % ID/g
same,Muscle uptake,[2]; 3 h post-injection,0.46 ± 0.30 % ID/g
same,Pancreas uptake,[2]; 3 h post-injection,0.41 ± 0.09 % ID/g
same,Salivary uptake,[2]; 3 h post-injection,2.06 ± 1.16 % ID/g
same,Seminal uptake,[2]; 3 h post-injection,0.29 ± 0.08 % ID/g
same,Spleen uptake,[2]; 3 h post-injection,2.10 ± 1.16 % ID/g
same,Stomach uptake,[2]; 3 h post-injection,0.14 ± 0.03 % ID/g
same,Tail uptake,[2]; 3 h post-injection,0.54 ± 0.22 % ID/g
same,Testes uptake,[2]; 3 h post-injection,0.56 ± 0.19 % ID/g
same,Thyroid uptake,[2]; 3 h post-injection,0.72 ± 0.29 % ID/g
same,Tumor uptake,[2]; 3 h post-injection,32.9 ± 10.9 % ID/g
same,Tumor:Blood ratio,[2]; 3 h post-injection,30.4 ± 13.2
same,Tumor:Muscle ratio,[2]; 3 h post-injection,98.6 ± 61.8
same,Tumor:kidney ratio,[2]; 3 h post-injection,1.22 ± 0.53
same,Urine uptake,[2]; 3 h post-injection,275 ± 158 % ID/g
